According to patent US7863310B2, “Kinase inhibitors” (Eli Lilly and Company, priority 2004, dated 2011):

Experiments:
[1] = system: TNF-α; assay: Effect on intra-articular LPS induced TNF-α in rat ankles; format: in vivo; conditions: female Lewis rats
Experimental: Intra-articular injection of LPS into rat ankles induces the synthesis of TNF-α, which can be measured in synovial lavage fluid. High levels of TNF-α are detectable within 2 hours. Since the joint is the site where arthritis develops, this model can rapidly determine whether an orally administered compound has an effect on an inflammatory response in the synovium.
Six female Lewis rats (150-200 g) are place in each treatment group. The animals are given vehicle (1% NaCarboxymethylcellulose-0.25% Tween 80) or Example 6 (1 mg/kg, 3 mg/kg, 10 mg/kg, and 30 mg/kg) orally. One hour later, 10 μl LPS (10 μg) is administered intra-articularly into the right ankle of each rat, while the left ankle receives 10 μL of saline. After two hours, each ankle is lavaged with 100 μL of saline. The lavage is collected and stored at −80° C. • Group#1: Vehicle (1% NaCMC-0.25% Tween 80, 1 mL, PO) • Group#2: Example 6 (free base) (1 mg/kg, 1 mL, PO) • Group#3: Example 6 (free base) (3 mg/kg, 1 mL, PO) • Group#4: Example 6 (free base) (10 mg/kg, 1 mL, PO) • Group#5: Example 6 (free base) (30 mg/kg, 1 mL, PO)
TNF-α was measured with a commercially available ELISA kit (R&D, RTA00). […] The TMED50=3 mg/kg for the compound of Example 6 in this assay.

[2] = system: Female Lewis rats, collagen induced arthritis; assay: Rat Collagen Induced Arthritis Efficacy Model; format: in vivo; conditions: 30 mg/kg bid, PO, 14 days
Experimental: Female Lewis rats ((≅190 gm, Charles River Labs) are immunized with Bovine type II collagen (2 mg/ml) emulsified with an equal volume of adjuvant (aluminum hydroxide). […]. The rats are immunized with approximately […] of the emulsion intradermally on the back neat the base of the tail. All animals are re-immunized 7 days later according to the same protocol. The rats begin to develop arthritis (characterized by swell-ling and redness of one or both ankles) from 12 to 14 days after the first immunization. The rats are equally distributed into five treatment groups at the first signs of arthritis and treatment is initiated with each rat dosed bid for 14 days.
Ankle diameter is measured with calipers 5 days a week and recorded. Data is expressed as the area under the curve (AUC) generated from the composite inflammation scores and statistical analysis performed.

Row | Compound | TMED50 ([1]; oral, intra-articular LPS induced TNF-α in synovial lavage fluid) [mg/kg] | reduced inflammation (AUC of composite inflammation scores, ankle diameter) [2] [%] | inhibition of TNF-α synthesis, as measured in the synovial lavage fluid ([1]; oral 1, 3, 10, 30 mg/kg, intra-articular LPS 10 μg one hour later, lavage after two hours, ELISA)
1 | CC(C)Cn1c(N)nc2ccc(-c3[nH]c(-c4c(F)cccc4F)nc3-c3ccccc3)cc21 [Example 6, 1-(Isobutyl)-2-amino-6-(2-(2,6-difluorophenyl)-4-phenyl-1H-imidazol-5-yl)-1H-benzimidazole] | 3 | 30 | 
2 | CS(=O)(=O)O.C[C@@H](n1c(N)nc2ccc(-c3[nH]c(-c4c(F)cccc4F)nc3-c3ccccc3)cc21)C(C)(C)C [Example 78, 6-[2-(2,6-Difluorophenyl)-5-phenyl-3H-imidazol-4-yl]-1-(1-(R)-methyl-2,2-dimethylpropyl)-1H-benzimidazol-2-ylamine methanesulfonate] |  |  | dose-dependent inhibition
